Where two headings read alike, the source gives them in different places.
Assays:
[1] = target: T1, GluG R encoded by clone 45-A (Rattus norvegicus, UniProt P23385); assay: Voltage clamp assay of inhibition of glutamic acid-evoked current in injected oocytes; assay type: cell-based; conditions: 1 mM DL-AP3; 10 μM glutamic acid; read-out: current evoked by 10 μM glutamic acid, % of the control
T1 construct: expressed in transfected cells; host or cells: Xenopus oocytes injected with RNA transcribed in vitro from clone 45-A
Description: Voltage clamp assays were also carried out on injected oocytes to measure the inhibition by the putative glutamate G protein coupled receptor antagonist, 2-amino-3-phosphonopropionic acid (AP3).

[2] = target: T1, GluG R encoded by clone 45-A; assay type: cell-based
[3] = system: rat G protein coupled glutamate receptor; assay: Competition of quisqualate with tritiated glutamic acid on membranes of transfected BHK cells; assay type: binding; conditions: membranes of BHK 570 and BHK TK^- ts13 clones
Description: Transfected cell lines expressing GluG R were identified by the binding of ^3 H-glutamate to membrane preparations from transfected cells. Cell lines expressing low to moderate levels of GluG R are used to set up functional screening assays.
Clones of BHK 570 and BHK TK^- ts13 cells expressing the rat G protein coupled glutamate receptor cDNA were plated in two or three 150 mm maxi-plates culture dishes and were grown to confluency. The cells from each plate were scraped in 5 ml of PBS (phosphate buffered saline, Sigma Chemical Co., St. Louis, Mo.), which was pre-chilled to 4° C. The cells were removed to a chilled centrifuged tube, and the plates were each rinsed with 5 ml of chilled PBS and pooled with the cells. The chilled tubes were spun at 1,000 rpm for two minutes, and the supernatant was discarded. The cells were frozen at either -70° C. or on dry ice. In some cases, the cells were left overnight at -70° C. […] The filters were dried in a microwave oven and counted in a […].
Protein determinations were carried out using a Coomassie Blue-based assay from Pierce Chemical Company (Rockford, Ill.) under conditions set forth by the manufacturer. One hundred microliters of undiluted cell homogenate or BSA standard was added to 2 ml of reagent and the optical density was measured at 595 nm. […]

GluG R = assay: Voltage-clamp recording of oocytes injected with RNA from positive pools of the cerebellum library; assay type: cell-based, rat; conditions: oocyte injected with RNA from subfractionated pool of 14,000 colonies, approximately 100 ng RNA
Description: Plasmid DNA prepared from each of the 10 pools of 100,000 clones, which in total represented one sublibrary of one million clones of the cerebellum cDNA library, was purified by cesium chloride gradient ultracentrifugation. The DNA was transcribed in vitro with T7 RNA polymerase (Pharmacia) in the presence of capped nucleotide (GpppG, Pharamcia). […] The transcription reaction tubes were set up by adding 12 μl of 5× transcription buffer (Stratagene Cloning Systems, La Jolla, Calif.), 3 μl each of 10 mM ATP, CTP, GTP, and UTP, 6 μl of 10 mM GpppG (Pharmacia), 6 μl of 1 mg/ml BSA, 3 μl of 200 mM DTT, 1.5 μl of 40 U/μl RNasin (ProMega Biotech, Madison, Wis.), 8.5 μl of water, 10 μl of cDNA containing 5 to 10 μg DNA, and 1 μl of 70 U/μl T7 RNA polymerase. […] Forty microliters of water was added to the radiolabeled reactions, and 1 μl was removed from each sample and counted to determine total counts. […] The samples were centrifuged to collect the RNA and the RNA pellets were counted to determine the counts incorporated into RNA. […]
The RNA from each of the 10 sublibraries were injected into oocytes as described above and translation was allowed for four days. Expression of GluG R activity was assessed by voltage-clamp assay as described above. […]

[4] = 100 μM, saturating concentration

T1 sequence (P23385 19-1199): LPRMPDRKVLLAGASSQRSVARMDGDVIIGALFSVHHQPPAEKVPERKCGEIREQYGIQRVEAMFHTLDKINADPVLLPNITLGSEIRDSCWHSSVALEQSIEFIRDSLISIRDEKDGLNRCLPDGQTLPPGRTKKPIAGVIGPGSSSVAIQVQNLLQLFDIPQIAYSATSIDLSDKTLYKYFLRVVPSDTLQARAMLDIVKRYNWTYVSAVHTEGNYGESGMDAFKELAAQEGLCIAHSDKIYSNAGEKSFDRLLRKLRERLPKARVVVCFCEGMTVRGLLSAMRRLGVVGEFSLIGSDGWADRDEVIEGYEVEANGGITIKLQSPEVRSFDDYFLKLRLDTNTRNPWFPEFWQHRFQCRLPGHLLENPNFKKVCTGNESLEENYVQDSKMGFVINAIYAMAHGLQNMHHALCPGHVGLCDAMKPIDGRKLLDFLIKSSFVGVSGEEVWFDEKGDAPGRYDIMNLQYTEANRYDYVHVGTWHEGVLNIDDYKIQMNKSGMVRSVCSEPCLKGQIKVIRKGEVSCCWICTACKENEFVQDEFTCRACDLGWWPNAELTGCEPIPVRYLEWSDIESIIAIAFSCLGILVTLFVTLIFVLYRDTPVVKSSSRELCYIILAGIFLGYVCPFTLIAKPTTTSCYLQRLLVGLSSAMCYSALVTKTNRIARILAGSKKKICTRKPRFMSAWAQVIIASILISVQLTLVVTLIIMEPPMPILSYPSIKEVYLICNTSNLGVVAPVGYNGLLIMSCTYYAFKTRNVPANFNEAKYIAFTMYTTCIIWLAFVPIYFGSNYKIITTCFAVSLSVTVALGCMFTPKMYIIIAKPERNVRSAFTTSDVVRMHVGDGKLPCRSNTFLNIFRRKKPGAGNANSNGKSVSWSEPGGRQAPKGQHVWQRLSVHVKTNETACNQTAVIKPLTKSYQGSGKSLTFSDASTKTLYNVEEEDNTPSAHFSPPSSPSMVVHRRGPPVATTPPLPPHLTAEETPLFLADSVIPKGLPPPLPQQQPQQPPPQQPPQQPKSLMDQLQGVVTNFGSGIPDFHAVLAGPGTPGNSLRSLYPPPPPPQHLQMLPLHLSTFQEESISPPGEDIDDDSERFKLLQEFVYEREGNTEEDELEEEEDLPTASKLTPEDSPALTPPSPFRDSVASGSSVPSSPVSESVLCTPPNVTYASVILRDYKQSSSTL

**Q.** How did the remaining activity at 1000 µM [1] turn out when `NC(CP(=O)(O)O)C(=O)O` (racemic) [DL-AP3, 2-amino-3-phosphonopropionic acid] was run?
**A.** 59.3 ± 7.3%

**Q.** `N[C@@H](CC(=O)O)C(=O)O` [aspartic acid] was tested. Which “response relative to 100 μM L-glutamate” value ([2]; 1 mM, saturating concentration) did it give?
**A.** ineffective

**Q.** With `NC(CCP(=O)(O)O)C(=O)O` (centres unmarked) [APB, 2-amino-4-phosphonobytyric acid] as the compound, how does the “response relative to 100 μM L-glutamate” value [2, 4] read?
**A.** ineffective

**Q.** `N[C@@H](Cn1oc(=O)[nH]c1=O)C(=O)O` [Quisqualic acid, quisqualic acid] was tested. Which “competitive binding to the glutamate receptor expressed by transfected BHK cells” value [3] did it give?
**A.** able to competitively bind

**Q.** And the “actual peak current in response to quisqualate (estimated from a digital panel meter)” value (GluG R)?
**A.** approximately 1300 nA

**Q.** Which “response relative to 100 μM L-glutamate” value [2, 4] does the source give for `Cc1onc(O)c1CC(N)C(=O)O` (stereo not drawn) [AMPA, α-amino-3-hydroxy-5-methyl-isoxazole-4-propionic acid] here?
**A.** ineffective

**Q.** Which “response relative to 100 μM L-glutamate” value ([2]; 1 mM, saturating concentration) does the source give for `C=C(C)[C@H]1CN[C@H](C(=O)O)[C@H]1CC(=O)O` [kainic acid] here?
**A.** ineffective

**Q.** How did the “response relative to 100 μM L-glutamate” value ([2]; 100 μM NMDA+10 μM glycine) turn out when `CN[C@H](CC(=O)O)C(=O)O` [NMDA, N-methyl-D-aspartic acid] was run?
**A.** ineffective
